Measured values as given in patent publication EP0672415A1, “Organopathy preventing, curing or ameliorating agent” (priority 1994, dated 1995).
“And” between values parts separate entries of the source, which are not always exact repeats. Identical values can stand only once. Like-named read-outs stand apart in the source and are kept apart here.

Assays:
[1] = tested on: rat liver transplantation; settings: livers ischemic for 60 min, untreated group 0%, cited from earlier work
[2] = tested on: porcine liver transplantation model; assay: Porcine liver transplantation model (8 hr cold preservation, sympatric transplantation); type: in vivo, swine
Experimental: A model was employed in which swine each weighing 30 to 40 kg were used, the livers were extirpated therefrom and preserved at low temperature for 8 hr, and sympatric liver transplantation was carried out. More specifically, the swine were starved for 24 hr, and randomly divided into two groups. Group 1 consisted of 9 donors and 9 recipients, which were treated with the above compound of the present invention. In the surgical operation of the donors, the compound (I) was added to the perfusate and the preservation fluid (1 mg/ℓ). Further, the compound (I) was continuously intravenously administered to the recipients (0.3 mg/kg) and added, in the surgical operation thereof, to the washing fluid for washing away the preservation fluid from the interior of each of the transplant livers (1 mg/ℓ).
Group 2 as a control group not treated with the compound of the present invention consisted of 9 donors and 9 recipients, for which the same continuous intravenous administration was carried out with the use of the same fluids as for Group 1, except that the compound (I) was not added thereto. A University of Wisconsin (hereinafter referred to as "UW") fluid prepared in a simplified manner was used for the perfusion and preservation of the transplant livers. The fluid was one obtained by omitting hydroxyethylstarch from the composition of the UW fluid customarily employed in the preservation of livers.
For each of the donors, premedication with ketamine (10 mg/kg) was conducted, and the auricular vein was cannulated to initiate the administration of physiological saline. Ketamine (5 mg/kg, i.v.) and pancronium (0.2 mg/kg, i.v.) were administered, and thereafter the airway was secured. The donor under surgical operation was kept anesthetized by inhalation of 3 ℓ of oxygen, 4 ℓ of laughing gas and 1.5% ethrane.
Heparin (10,000 IU) was intravenously injected, and thereafter the subrenal ventral aorta was cannulated. […] The gallbladder was dissected, and washed with physiological saline. The resultant liver was taken out, and immersed in a UW fluid bath. […] The transplant liver was preserved at 4°C for 8 hr.
Each of the recipient swine was also anesthetized in the same manner as described above with respect to the surgical operation of the donors. The right carotid artery and the right subclavian vein were cannulated for blood pressure monitoring and blood sampling and for intravenous injection, respectively. The abdomen was cut open, and the liver was detached and removed. During the ahepatic period, the blood from the portal vein was passively bypassed through a shunt tube inserted into the portal vein and the right external jugular vein. […] After the completion of the anastomosis with the portal vein, the transplant liver was reperfused with the blood from the portal vein.
The bile duct was drained outside the body through a biliary external fistula tube.
Just before the anastomosis with the portal vein, the transplant liver was perfused with lactated Ringer's solution (500 ml) containing dextrose (5 wt.%), mannitol (1.25 wt.%) and sodium bicarbonate (0.21 wt.%) to thereby remove the preservation fluid. The washing fluid was held at 30 to 37°C. Within 3 min of the hot washing, the transplant liver was reperfused.
During the ahepatic period starting with the initiation of the surgical operation, physiological saline (500 ml) containing dextrose (2.5 wt.%) was administered through the auricular vein. For the Group 1, the compound (I) (0.3 mg/kg) was mixed in the saline solution. During the ahepatic period, 500 to 750 ml of physiological saline containing sodium bicarbonate (0.21 wt.%) was rapidly injected in order to prevent blood pressure lowering. Sodium bicarbonate (1.05 g) and calcium gluconate (0.1 g) were intravenously administered prior to the reperfusion of the transplant liver. During the surgical operation, no transfusion was conducted, and a total of 1.5 to 2.0 ℓ of infusion solution was administered. […]

[3] = tested on: Slc:SD rats; assay: Acute toxicity test, single intravenous administration, rats; type: in vivo, Rat; settings: for Acute toxicity (LD₅₀): Rat, Intravenous Injection, single administration
Experimental: (§1) A single administration toxicity test was carried out by effecting intravenous injections (medium: physiological saline) to a group consisting of five male and five female 7 to 8-weeks-old Slc:SD rats and a group consisting of five male and five female 7 to 8-weeks-old Slc:ICR mice.

[4] = tested on: Large-White pigs; assay: Orthotopic liver transplantation following 8 hour cold preservation in pigs (second description); type: in vivo
Experimental: Orthotopic liver transplantations following 8 hour cold preservation were performed. Large-White pigs weighing 35-40 Kg were used after 24 hours starvation. Pigs were randomly divided into 2 groups. In Group 1, the PAF antagonist treatment group, consisting of 9 donors and 9 recipients, the PAF antagonist the compound (I) was given in the solutions (1mg/L) for flush-out and preservation at donor operation. It was also administered into recipients (0.3mg/Kg body weight) as an infusion and given in the solution (1mg/L) for rinsing before reperfusion of the graft (RPF) at recipient operation. Group 2, the untreated control group, consisted of 9 donors and 9 recipients that received the same solutions or intravenous infusion only without the compound (I). The solutions for flush-out and preservation of the graft liver were simplified UW solution in which hydroxyethyl starch was omitted from the original formulation of UW solution described for liver preservation, according to the reports showing that hydroxyethyl starch is not an essential component in UW solution.
Following premedication with ketamine (10mg/Kg i.m.), the ear vein was cannulated and saline perfusion was started. After injection of ketamine (5mg/Kg i.v.) and pancuronium (0.2mg/Kg i.v.), the animals were […]. Anesthesia was maintained by inhalation with 3L oxygen, 4L nitrous oxide and 1.5% ethranne. […] Following intravenous injection of heparine (10,000IU), the subrenal abdominal aorta was cannulated. […] The gallbladder was incised and washed with saline. The liver was harvested and dipped in 4üÄ UW solution bath.
The recipient pigs were anesthesized as described in donor operation. The right carotid artery and the right subclavian vein were then cannulated for blood pressure monitoring and blood sampling and for intravenous fluid infusion, respectively. After laparotomy, the liver was dissected free and removed. During anhepatic period, the portal blood was passively shunted by a tube between the portal vein and the right external jugular vein. […] The graft liver was reperfused with the portal blood after completion of the portal vein anastomosis. The bile duct was drained by external tube fistula. Immediately before the anastomosis of the portal vein, to remove the preservation solution, the graft liver was flushed with 500ml of Ringers lactate containig dextrase (5g%), mannitol (1.25g%) and sodium bicarbonate (0.21g%) as previously described. […] In our operations, the duration between the warm rinsing and RPF was less than 3 miniutes by using the cuff technique in portal vein anastomosis.
Intraoperative fluid infusion was as follows; 500ml of saline containing dextrose (2.5g%) was infused through the ear vein between the begining of the operation and the anhepatic period. In Group 1, The compound (I) (0.3mg/Kg) was mixed in this solution. During the anhepatic period, 500-750ml of saline containing sodium bicarbonate (0.21g%) was rapidly infused to prevent hypotension. Prior to RPF, sodiumu bicarbonate (1.05g) and calcium gluconate (0.1g) were injected intravenously. As a total, 1.5-2L of the fluid was infused during operation without any blood transfusion. Postoperatively, 0.5-1.0L of 5% dextrose solution was infused for the first 12 hours. Sodium bicarbonate was given to correct metabolic acidosis when necessary. No immunosuppressant was administered.
(§2) (1-Ethyl-2-[N-(2-methoxy)benzoyl-N-[(2R)-2-methoxy-3-( 4-octadecylcarbamoyloxy)piperidinocarbonyloxypopoxy]carbonyl]aminomethylpyridinium chloride, molecular weight 860.5) was supplied in powder form by Eisai Co.,Ltd. (Japan). It is soluble in water and saline, and a 1.5 mg/ml solution was prepared with saline immediately before use.
AKBR was measured at the time of cannulation in the right carotid artery (before), and at 1, 2, 4 and 12 hours after RPF. […]

[5] = Solubility in water and physiological saline; type: physicochemical
Experimental: The compound (I) soluble in both water and physiological saline was dissolved in physiological saline to prepare a solution of the compound (I) (1.5 mg/ml) prior to use.
as §2

[6] = tested on: Slc:ICR mice; assay: Acute toxicity test, single intravenous administration, mice; type: in vivo, Mouse; settings: for Acute toxicity (LD₅₀): Mouse, Intravenous Injection, single administration
Experimental: as §1

[7] = tested on: human platelets; settings: reported value; read-out: IC50 value, inhibition of aggregation of human platelets induced by PAF; cited from earlier work
[8] = Group 1, 4 hr after the reperfusion (p<0.05)

COC1=C(OC)C(=O)C(C/C=C(\C)CC/C=C(\C)CC/C=C(\C)CC/C=C(\C)CC/C=C(\C)CC/C=C(\C)CC/C=C(\C)CC/C=C(\C)CC/C=C(\C)CCC=C(C)C)=C(C)C1=O [coenzyme Q₁₀]
one-week survival rate ([1]; 10 mg/kg intravenously to the donor rats prior to the operation): about 50%
one-week survival rate ([1]; 10 mg/kg intravenously to the recipient rats prior to the operation): about 50%

CCCCCCCCCCCCCCCCCCNC(=O)OC1CCN(C(=O)OCC(COC(=O)N(Cc2cccc[n+]2CC)C(=O)c2ccccc2OC)OC)CC1.[Cl-] (stereo not drawn) [compound (I), 1-ethyl-2-[N-(2-methoxy)benzoyl-N-{2-methoxy-3-(4-octadecylcarbamoyloxy)piperidinocarbonyloxypropoxy}carbonyl]aminomethylpyridinium chloride]
hematocrit values ([2]; Group 1 (both groups alike), course after the reperfusion): rapidly increased 2 hr after the reperfusion, and gradually decreased thereafter
survival of all of the 9 swine ([2]; Group 1 (treated group)): at least 4 days
12-hr or longer survinal rate ([2]; Group 1, 9/9, Group 2 (untreated) 56% (5/9)): 100%
lactate level of arterial blood ([2]; Group 1, 2 hr after the reperfusion): 9.9 ± 1.0 mmol/L
platelet count ([2]; Group 1, 2 hr later): 309.8 ± 21.6 ×10³/µℓ
leukocyte count ([2]; Group 1, 2 hr later (p<0.01 vs Group 2)): 14.3 ± 1.8 ×10³/µℓ
GOT level [2, 8]: 712 ± 97 U/ℓ
GPT level [2, 8]: 65 ± 4 U/ℓ
lactate level of arterial blood [2, 8]: 6.2 ± 1.1 mmol/L
lactate level of arterial blood ([2]; Group 1, 12 hr after the reperfusion): recovered to the initial level
AKBR ([2]; Group 1, 12 hr after the reperfusion, significantly higher than Group 2 (p<0.05)): recovered to the normal condition level
platelet count ([2]; Group 1, 12 hr later): 227.8 ± 13.4 ×10³/µℓ
AKBR ([2]; Group 1, during 4 hr after the reperfusion, compared with Group 2): only slightly higher than that of the Group 2
leukocyte count ([2]; Group 1, prior value): 11.5 ± 1.1 ×10³/µℓ
platelet count ([2]; Group 1, prior value): 294.4 ± 19.8 ×10³/µℓ
Histologic study (optical microscope): hepatocyte necroses, stagnation of hepatosinusoidal inflammatory cells, vacuolar degeneration ([2]; Group 1, reperfused liver 1 hr after the reperfusion): little observed
glycogen content of the hepatocytes (staining) ([2]; Group 1 versus Group 2, 1 hr after the reperfusion): the glycogen content of the hepatocytes in the Group 2 was smaller than that in the Group 1
Period of Survival ([2]; individual recipient swine of Group 1 (treated): 1 mg/ℓ in perfusate, preservation fluid and washing fluid, 0.3 mg/kg i.v. to recipients, 0.3 mg/kg): 7 days or more (4×) and 4 days and 5 days and 6 days (2×) and 7 days
Acute toxicity (LD₅₀) ([3]; Female): 22.8 mg/kg
Acute toxicity (LD₅₀) ([3]; Male): 18.2 mg/kg
LD₅₀ values relative to the clinical dose in intravenous injection ([3]; rat LD₅₀ values of Table 1): ≥ 50 times
hematocrit values ([4]; Group 1 (both groups alike), course after RPF): increased markedly at 2 hours after RPF, and then gradually decreased
survival of all the 9 pigs ([4]; Group 1 (treated)): more than 4 days
platelet count ([4]; Group 1, at 2 hours after RPF): slightly increased at 2 hours
lactate level in arterial blood ([4]; Group 1, at 12 hours after RPF): restored to the primary levels
Histological examination by light microscopy (HE stain): necrosis of hepatocytes, exudate of inflammatory cells, microvesicular changes ([4]; Group 1, reperfused liver at 1 hour after RPF): rarely seen
content of glycogen in hepatocytes (PAS staining) ([4]; Group 1 versus Group 2, at 1 hour after RPF): lesser content of glycogen in hepatocytes in Group 2 than in Group 1
AKBR ([4]; Group 1 versus Group 2, at 4 hours after RPF): tendency to be higher in Group 1 than in Group 2, though not significant
Survival ([4]; individual pigs of Group 1 (n=9) (treated): 1mg/L in flush-out, preservation and rinsing solutions, 0.3mg/Kg infusion to recipients, 0.3 mg/kg): >7 POD (4×) and 4 POD and 5 POD and 6 POD (2×) and 7 POD
solubility [5]: soluble
Acute toxicity (LD₅₀) ([6]; Female): 50.0 mg/kg
Acute toxicity (LD₅₀) ([6]; Male): 46.8 mg/kg
LD₅₀ values relative to the clinical dose in intravenous injection ([6]; mouse LD₅₀ values of Table 1): ≥ 50 times
IC50 [7]: 0.66 nM
